The values that follow come from patent publication US20180321224A1, “COMPOSITIONS AND METHODS FOR INCREASING HEPATOCYTE FUNCTIONAL LIFETIME IN VITRO” (Colorado State University Research Foundation, priority 2015, published 2018).

Read-outs that look alike come from different tables or passages of the source.

Series [1] relates to primary human hepatocytes in micropatterned co-cultures (MPCCs). The experiment in a line: Hepatotoxicity screening in MPCCs pre-cultured in physiologic medium (urea synthesis). The conditions noted are these: for Calculated TC50 (interpolated concentration where urea synthesis drops below 50% of the vehicle control): MPCCs in physiologic medium for 10 days, treated 2 times over 5 days in serum free medium, vehicle DMSO. The procedure: Therefore, a drug screen with cultures after they were subjected to physiologic medium for 10 days was carried out (FIG. 5). […] Drug treatments were carried out in serum free medium to prevent potential drug-protein interactions.
Urea synthesis and glucose production was quantified using previously described methods. Since human serum contains significant amounts of […], an alternative protocol to quantify MPCC albumin production was used. Specifically, after 2 and 3 weeks of culture, cultures were washed 3 times with 1×PBS, and then incubated for 24 hours in serum free medium. Albumin was then measured in this medium using a sandwich ELISA method. To account for potential residual albumin in cell culture medium, any differences in albumin production between cultures incubated in 5%, 7.5% and 10% serum were examined. […] Enzyme activity was assessed using the methods previously described.
Drug toxicity and enzyme induction were assessed as previously described.

The conditions of series [2]: average maximal drug concentration observed in patients after administering the drug; cited from earlier work.
Setting [3] is: after 2 treatments over 5 days at 25*Cmax and 100*Cmax, serum free medium, MPCCs pre-cultured in physiologic medium 10 days.

As for `Clc1ccc(COC(Cn2ccnc2)c2ccc(Cl)cc2Cl)c(Cl)c1` (stereo not shown) [miconazole], the “Toxicity categorization by urea synthesis in MPCC supernatants (toxic if below 50% of vehicle control)” value in series [1] was “no significant loss in urea synthesis”.
Consider `CC(=O)Oc1ccccc1C(=O)O` [aspirin], for which the “Toxicity categorization by urea synthesis in MPCC supernatants (toxic if below 50% of vehicle control)” value in series [1] is recorded as “no significant loss in urea synthesis”.
As to `C[C@]12C=CC(=O)C=C1CC[C@@H]1[C@@H]2C(=O)C[C@@]2(C)[C@H]1CC[C@]2(O)C(=O)CO` [prednisone], the “Toxicity categorization by urea synthesis in MPCC supernatants (toxic if below 50% of vehicle control)” value in series [1] is given as “no significant loss in urea synthesis”.
As to `C[C@@H]1C[C@H]2[C@@H]3CCC4=CC(=O)C=C[C@]4(C)[C@@]3(F)[C@@H](O)C[C@]2(C)[C@@]1(O)C(=O)CO` [dexamethasone], in series [1], the “Toxicity categorization by urea synthesis in MPCC supernatants (toxic if below 50% of vehicle control)” value was “no significant loss in urea synthesis”.
Consider piroxicam, for which, in series [2], the Cmax was 5.13 µM. Further, the “Calculated TC50 (interpolated concentration where urea synthesis drops below 50% of the vehicle control)” value in series [1] was 2901 µM. Besides, in series [1] (setting [3]), the “Toxicity categorization by urea synthesis in MPCC supernatants (toxic if below 50% of vehicle control)” value was “toxic”.
On to troglitazone, for which the Cmax in series [2] was 6.39 µM. The “Calculated TC50 (interpolated concentration where urea synthesis drops below 50% of the vehicle control)” value in series [1] is 1555 µM. Also, the “Toxicity categorization by urea synthesis in MPCC supernatants (toxic if below 50% of vehicle control)” value in series [1] (setting [3]) is given as “toxic”.

Usually Cmax stands for the peak of the concentration-time curve.
